Data as given in patent US7087661B1, “Safe and effective biofilm inhibitory compounds and health-related uses thereof” (Cernofina, LLC, priority 1998, dated 2006).
“And” between values parts separate entries of the source, which are not always exact repeats. Equal values may be shown once. Where a name gives a salt, the structure may show the parent alone.

Experiments:
Alteromonas atlantica = Alteromonas atlantica adhesion tests on glass slides; format: cell-based; details: for Alteromonas atlantica adhesion relative to controls: 5 mM dissolved in modified ASTM seawater
Description: Alteromonas atlantica adhesion tests. The tests consisted of a control sample set, a zosteric acid (5 mM) sample set, an octyl sulfate (5 mM) sample set, and a methyl sulfate (5 mM) set. A sample set consisted of six 60 mL sterile centrifuge tubes. Each tube contained a glass microscope slide and 50 mL of modified ASTM seawater (American Society for Testing and Materials (1986) D1141-86, ASTM, Philadelphia, Pa.) with dissolved agent, inoculated with Alteromonas atlantica culture to an initial cell density of 1×10^6 cells/mL. The modified seawater consisted of normal ASTM seawater ingredients, however the carbon source glycerol, was only 1000th the normal strength, […], and was void of an amino acid source (casamino acids), in order to allow enough carbon for attachment, but not for significant cell growth.
(§1) Determination of bacterial adhesion. Samples were removed from the shaker and 1 mL of 50× acridine orange stain (0.5 g/L acridine powder in water) was added to the tube. The stain was allowed to react for 4 minutes. The slides were then removed and fitted with a long cover slip and immediately counted with an epifluorescent microscope fitted with a 100× (oil) objective lens on the under side of the slide. The size of the counting field was 10×10 μm. A total of 20 counts per slide were performed and averaged to yield the number of cells per μm^2, which was in turn converted to cells per mm^2. Error was assigned at 10% which is the standard accepted error for direct counting of bacterial cells.

Oceanosprillum = Oceanosprillum adhesion test on glass slides; format: cell-based; details: 5 mM in artificial seawater, 6-hour period
Description: Oceanosprillum adhesion test Each test consisted of a control set (with no sulfate esters) and sample sets containing the test molecules. The first test group consisted of a control sample set, a zosteric acid (5 mM) sample set, and an octyl sulfate (5 mM) sample set. The second test group consisted of a control sample set, a zosteric acid (5 mM) sample set, and a methyl sulfate (5 mM) sample set. Sample sets consisted of five 50 mL sterile centrifuge tubes, with each tube containing a glass microscope slide, 50 ml of artificial seawater (ASTM—American Society for testing and materials) with the dissolved sulfate ester, inoculated with an Oceanosprillum culture at 1×10^6 cells/mL. Sample sets were incubated at 23 C, with shaking so that the surface of the slides were horizontal. Over a 6-hour period, individual tubes were taken from the sample sets and tested for microbial adhesion.
as §1

[1] = tested on: polyclonal antibodies specific for zosteric acid; test: Preliminary testing of anti-zosteric acid polyclonal antibodies for cross reactivity; format: binding
Description: To investigate the mechanism behind the AF activity of sulfate esters, polyclonal antibodies specific for the sulfate ester zosteric acid were generated (BAbCo, Berkeley, Calif.). […] These antibodies were then used to investigate whether the sulfate ester AF agent zosteric acid directly binds fouling organisms.

[2] = tested on: clot formation (prothrombin clotting time); test: Prothrombin clotting time assays; format: biochemical; details: human serum
Description: Clotting assays. Clotting time assays were performed using commercial kits (Sigma Chemical Co.) for prothrombin clotting time. Serum was harvested from 30 mL of whole human blood obtained by venous puncture using centrifugation to remove blood cells. Zosteric acid and high MW heparin were added to separate aliquots of the serum, producing concentrations from 0 to 5.0 mg/mL. Clotting times were determined for each concentration in duplicate according to the protocols provided with the kit.

[3] = tested on: sea urchin egg fertilization (sperm-egg fusion); test: Sea urchin fertilization assays; format: cell-based
Description: A simple sea urchin assay was used to detect and quantitate the ability of sulfate esters to block sperm-egg fusion. Sea urchin sperm was added to freshly collected eggs in the presence and absence of increasing amounts of the sulfate ester zosteric acid, and the eggs were subsequently scored for successful fertilization. Fertilization assays. Healthy sea urchins were induced to spawn by injection with 0.5 M KCL solution. Freshly collected eggs were gently washed and resuspended in filtered sea water (FSW, pH 8.2) and aliquotted into separate tubes for fertilization assays. Zosteric acid was added to each tube from a concentrated stock dissolved in FSW (pH 8.2), along with additional FSW to ensure a constant volume in each tube. Equal amounts of sperm were added to each tube and percent fertilization was determined by direct microscopic counting. Eggs with elevated fertilization membranes were scored as fertilized. Assays were performed at sperm-limiting concentrations that allowed 95–99% fertilization in the absence of zosteric acid.

equine erythrocytes = test: Red blood cell agglutination assays; format: cell-based; details: for concentrations producing erythrocyte agglutination: washed equine erythrocytes, 0.005 to 5.0 mg/mL tested
Description: Red Blood Cell agglutination assays. Washed equine erythrocytes suspended in 1 mg/mL sodium citrate were placed in microtiter plates designed with wells containing hemispherical bottoms. Negative controls (no zosteric acid) were diluted in isotonic saline solution. Zosteric acid treated cells were diluted with saline containing zosteric acid at eight concentrations ranging from 0.005 to 5.0 mg/mL. Positive controls were exposed to the same range of high molecular weight heparin sulfate concentrations.

Shewanella putrefaciens = test: Bacterial agglutination assays (growth and agglutination in liquid culture); format: cell-based
Description: To further investigate the role of sulfate esters in agglutination, the ability of sulfate esters to facilitate the agglutination of bacterial cells was investigated. Log-phase cultures grown in the presence of zosteric acid were monitored spectrophotometrically (OD600) for growth, and for agglutination in the presence of increasing amounts of zosteric acid. Bacterial agglutination assays. Log-phase cultures of Shewanella putrefaciens were grown in complete seawater medium containing zosteric acid at a range of concentrations up to 20 mM. Cultures were counted for viable colony forming units at eight hours.

[4] = tested on: agglutination of sea urchin eggs by purified bindin; test: Sea urchin egg agglutination assays with purified bindin; format: cell-based
Description: Sea urchin egg agglutination assays. Freshly spawned eggs were suspended in acidic seawater (pH 5) for 5 minutes to remove the outer jelly coat, and then washed 5 times in normal FSW (pH 8.2). Eggs were then transferred into plastic petri dished containing a range of zosteric acid concentrations and incubated for 15 minutes. Purified bindin (D. Epel, Stanford University) was added to the eggs at concentrations ranging from 1.2 to 12 μg/mL. The mixtures were gently agitated on a rotary shaker for 5 minutes and visually examined for agglutination. Bovine serum albumen (BSA) was used in separate assays to control for nonspecific agglutination of the dejellied eggs.

Aureobasidium pullulans = test: Fungal attachment and growth assay on glass slides; format: cell-based, Aureobasidium pullulans (ATCC 34261)
Description: Aureobasidium pullulans (ATCC 34261) was grown on potato-dextrose agar and harvested according to ASTM G-21-90 protocols (American Society for Testing and Materials (1986) […]-86, ASTM, Philadelphia, Pa.). The resulting spore suspension was used to inoculate liquid culture tubes containing 35 mL of growth medium (nutrient salts with 5 mM sucrose) and 15 mM zosteric acid. Zosteric acid-free medium was prepared as a control. A sterile microscope slide was added to each tube, the tubes were sealed and placed on a rotary shaker table at room temperature. One tube was harvested each day by removing the slide and counting the number of attached spores by direct microscopic counts, as described above.

[5] = tested on: Shewanella putrefaciens cell surface; test: Cell surface binding assay (immuno-gold staining, electron microscopy); details: cultures grown with 16 mM zosteric acid
Description: The marine bacterium Shewanella putrefaciens were grown in cultures containing zosteric acid and were subsequently examined for bound zosteric acid using immuno-gold staining with the antibody described above.
Cell Surface Binding Assays. The marine bacterium Shewanella putrefaciens was grown in marine broth in the presence of 16 mM zosteric acid. Dense log phase cells were harvest after 5 hours growth, and preserved in 0.5× Kamofsky's fixative (2% formaldehyde, 2.5% gluturaldehyde, 0.05 M sodium cacodylate, 0.25 M sucrose, pH 7.4) for 2 hours, and then transferred to a cacodylate buffer (0.05 M sodium cacodylate, pH 7.4) for storage. Cells were prepared for electron microscopic examination using immuno-gold staining techniques (Harlow, E. and Laine, D., Antibodies, A Laboratory Manual, Cold Spring Harbor Laboratory, 359–421; Roth et al., J. Histochem. Cytochem. 26: 1074–1081 (1978)). The primary antibody used in this study was an anti-zosteric acid polyclonal antibody (BAbCo, Richmond, Calif.).

[6] = tested on: natural marine algal biofilms; test: Marine algal biofilm development on RTV-11 silicone coating in running raw seawater; format: cell-based, marine algae; details: 25% (wt/wt) in RTV-11 silicone coated on glass slides; 26 days in running seawater
Description: A 30% (w/v) solution of octyl sulfate in water (Stepan Chemical Co.) was evaporated to dryness under a stream of room temperature air, to recover pure octyl sulfate (FIG. 1). The dry octyl sulfate was incorporated into RTV-11 silicone polymer at a loading of 25% (wt/wt) (RTV-11 silicone, catalyst and primer obtained from General Electric). The mixture was applied to three glass slides previously primed with silicone primer, and allowed to cure to dryness. Three primed glass slides coated with pure RTV-11 served as agent-free controls. After complete drying, the absorption properties of each slide were measured using a Shimadzu UV-2101 spectrophotometer fitted with an integrating sphere. Slides were then placed in a tank of running raw seawater and allowed to incubate outdoors in natural sunlight for 26 days. Water temperature was nominally 15 C. Spectrophotometric determination of biofilm accumulation was measured on each slide periodically. Relative algal biomass was calculated as the ratio of absorption at 680 nm, contributed by chlorophyll a, to that at 750 nm, a wavelength not absorbed by chlorophyll, to correct for differences in turbidity and scattering properties of the different slides.

`COS(=O)(=O)O` [methyl sulfate] was tested, and the Alteromonas atlantica adhesion (Alteromonas atlantica; 5 mM, constant after 120 minutes, controls greater than 700,000) was 150,000 cells/mm^2 and the “Oceanosprillum adhesion (bacterial attachment) relative to control” value (Oceanosprillum) was “roughly a two fold reduction”.
In the case of `O=C(O)C=Cc1ccccc1` [cinnamic acid], the “cross reactivity with antibodies specific for zosteric acid” value [1] is reported as “no cross reactivity”.
heparin [reference compound] was tested, and the “concentrations effective at preventing clot formation” value [2] was “below 0.1 mg/ml”, the reduction of fertilization ([3]; 1 mg/mL) was “approximately 50%” and the “concentrations producing erythrocyte agglutination” value (equine erythrocytes) was “greater than 0.75 mg/mL”.
In the case of `CCC(C)(C)c1ccc(OS(=O)(=O)Cl)cc1` [4-PPCS, 4 t-Pentyl Phenyl Chlorosulfate], the “impact on sperm motility” value ([3]; contact with 4-PPCS) is reported as “no adverse impacts”, the “inhibition when more sperm were added to the medium” value ([3]; exceeding the binding capacity of 4-PPCS in solution) is reported as “could be washed out” and the “effectiveness in blocking sea urchin fertilization” value ([3]; in the range of 1–10 mM) is reported as ~100%.
For `O=C(O)/C=C/c1ccc(OS(=O)(=O)O)cc1` [zosteric acid], the “concentrations effective at preventing clot formation” value [2] was “exceeding 10 mg/ml”, the “Alteromonas atlantica adhesion relative to controls” value (Alteromonas atlantica) was “significant reduction” and the “counts of viable colony forming units” value (Shewanella putrefaciens; at eight hours, among the different cultures) was “no difference in cell density”. The “agglutination of S. putrefaciens” value (Shewanella putrefaciens; concentration dependent, up to 20 mM) was “significant agglutination”, the “growth of S. putrefaciens in liquid culture” value (Shewanella putrefaciens; concentrations up to 16 mM) was “did not inhibit the growth” and the “Oceanosprillum adhesion (bacterial attachment) relative to control” value (Oceanosprillum) was “roughly a two fold reduction”. The Agglutination ([4]; [ZA] 0.015 mg mL^−1) was “Yes”, the Agglutination ([4]; [ZA] 0.03 mg mL^−1) was “Yes” and the Agglutination ([4]; [ZA] 0.075 mg mL^−1) was “Yes”. For the same molecule, the Agglutination ([4]; [ZA] 0.15 mg mL^−1) was “Yes”, the Agglutination ([4]; [ZA] 0.30 mg mL^−1) was “Yes” and the Agglutination ([4]; [ZA] 0.75 mg mL^−1) was “Yes”. For the same molecule, the Agglutination ([4]; [ZA] 1.5 mg mL^−1) was “No”, the Agglutination ([4]; [ZA] 3 mg mL^−1) was “No” and the “concentration range effective in blocking sea urchin fertilization” value [3] was 1 to 10 mM. For the same molecule, the fertilization remaining ([3]; 1 mg/mL) was 21%, the “effectiveness at inhibiting fertilization relative to heparin” value ([3]; equal mass concentrations, 1 mg/mL) was “at least twice as effective” and the “concentrations that completely blocked fertilization” value ([3]; sea urchin eggs, sperm-limiting concentrations) was “higher than 0.5 mg/mL and > 1.5 mM”. For the same molecule, the “effect on sperm viability or motility” value ([3]; sea urchin sperm exposed to zosteric acid) was “no detected effect”, the “reversibility of fertilization inhibition” value ([3]; unfertilized eggs of highest treatment washed and re-exposed to fresh sperm) was “reversible” and the “reactivity with cell surface glycoproteins and polysaccharides relative to high molecular weight heparin” value (equine erythrocytes; from erythrocyte agglutination concentrations) was “eight times more reactive”. For the same molecule, the “concentrations producing erythrocyte agglutination” value (equine erythrocytes) was ≥ 0.175 mg/mL, the “filamentous growth or mycelial development of colonies” value (Aureobasidium pullulans; 15 mM in liquid culture) was “no evidence of filamentous growth or mycelial development” and the “germinated fungal colonies on slides” value (Aureobasidium pullulans; 15 mM, after 5 days incubation, control more than 600) was “less than 20 germinated fungal colonies/mm^2”. For the same molecule, the “growth of fungal spores in the medium” value (Aureobasidium pullulans; 15 mM, clouding of tubes after Day 1) was “observed to grow” and the “zosteric acid bound to bacterial cell surface (immuno-gold staining)” value [5] was “bound to the surface of the bacteria”.
`CCCCCCCCOS(=O)(=O)[O-].[Na+]` [octyl sulfate] was tested, and the “Alteromonas atlantica adhesion relative to controls” value (Alteromonas atlantica) was “slightly higher inhibitory activity than zosteric acid”, the “algal biofilm development relative to controls lacking octyl sulfate” value [6] was “five fold less” and the “Oceanosprillum adhesion (bacterial attachment) relative to control” value (Oceanosprillum) was “to an even greater extent than zosteric acid”.
For `O=C(O)/C=C/c1ccc(O)cc1` [coumaric acid, reference compound], the “effect on egg fertilization” value ([3]; 1 mg/mL) was “no effect”.
With `COc1cc(/C=C/C(=O)O)ccc1O` [ferulic acid] the “cross reactivity with antibodies specific for zosteric acid” value [1] was “no cross reactivity”.
